Like-named read-outs stand apart in the source and are kept apart here.
What was measured:
[1] = set-up: method as in unpublished; conditions: ref unpublished, cited from earlier work
[2] = Food-effect two-period crossover trial: plasma pharmacokinetics after a single 200 mg oral dose of Ginsenoside CK Tablets; assay type: in vivo, human; conditions: for Tmax: median (range)
Protocol: The food-effect trial was an open-label, randomized, two-period, two-treatment crossover trial, carried out from 15 January to 31 March 2015. Subjects (n = 24) were admitted to the clinical facility (Center of Clinical Pharmacology, the Third Xiangya Hospital, Central South University, Changsha, China) and randomized to receive a single 200 mg oral dose of Ginsenoside CK Tablets (4 × 50 mg tablets) either after a 10 h-fasting period or within 30 min after beginning the consumption of a recommended high-fat, high calorie breakfast (150 calories of protein, 250 calories of carbohydrates, 500 to 600 calories of fat; total calories approximately 800–1,000). Tablets were administered with 250 mL of water, to each subject, in each treatment period. Drinking was prohibited for 2 h before and after medication. Apart from this, the amount and time of drinking were not strictly controlled. Subjects had unified, standard meals 4 and 10 h after drug administration. The alternate treatment was conducted after a 14-day washout period.
Serial blood samples (5 mL) for PK assessment were collected from an indwelling catheter or by direct venipuncture prior to the administration (t = 0) and 0.25, 0.5, 1, 1.5, 2, 2.5, 3, 3.5, 4, 5, 6, 8, 12, 24, 36, 48, 72, and 96 h after the administration of ginsenoside CK. We inferred that these sampling times were sufficient for this trial, based on international guidelines (FDA, [2003]; CFDA, [2005]) and our previous results, since the sampling time is longer than at least three terminal half-lives of the drug. Additionally, the mean plasma concentrations of both CK and 20(S)-PPD at 96 h were considerably <1/20 of their Cmax even when the single oral dose at 800 mg (unpublished). Plasma was separated in blood collection tubes by centrifugation (3,000 rpm, 10 min) at 4°C within 1 h after sampling, transferred to labeled storage tubes and stored at −70°C pending workup and analysis.
Descriptive statistics of PK parameters were calculated using established non-compartmental methods, utilizing the WinNonLin version 6.1 software (Pharsight Corporation, USA). The PK parameters determined for each participant included apparent terminal half-life (t1/2), maximum plasma concentration (Cmax), time to Cmax (tmax), area under the plasma concentration-time curve from the time of administration up to the last time point with a measurable concentration post-dose (AUClast), AUC extrapolated to infinity (AUCinf), apparent volume of distribution (V/F), apparent plasma clearance (CL/F) after extravascular administration, mean residence time (MRTlast and MRTinf), and the cumulative excretion rate from urine. The t1/2 was estimated as (ln2)/K, where K represented the slope of the terminal phase of plasma concentration-time profile and was assessed with a weighting factor of 1, using least squares (log-linear regression of at least three data points). The Cmax and tmax were obtained from experimental observations. The values of AUC were calculated using conventional trapezoidal and log-trapezoidal methods and the extrapolated area (Rowland and Tozer, [1995]). CL/F and V/F were calculated as dose/AUCinf and (CL/F)/K, respectively. MRT was calculated as MRT = AUMC/AUC, where AUMC is the area under the first moment curve. The cumulative excretion rate was calculated as the amount of unchanged drug over a time interval in the urine divided by dose, and was expressed as a percentage.
All samples were detected using a LC-MS/MS (API 4000, ABI Company, USA) method, validated at the Institute of Clinical Pharmacology, Central South University (Changsha, China). Concentrations of CK and 20(S)-PPD were measured using a triple quadrupole tandem mass spectrometer in multiple reaction monitoring (MRM) mode, via a positive electrospray ionization source at m/z 621.4→ 160.8 for the CK and m/z 461.5→425.3 for 20(S)-PPD, with a dwell time of 200 ms. […]

[3] = both sexes, human, plasma, po, 200 mg, single oral 200 mg CK, FO, all subjects
[4] = female, human, plasma, po, 200 mg, single oral 200 mg CK, FO
[5] = female, human, plasma, po, 200 mg, single oral 200 mg CK, HF
[6] = geometric mean ratio FO vs. HF, n = 24
[7] = human, plasma, po, 200 mg, single oral 200 mg CK, FO, all subjects
[8] = human, plasma, po, 200 mg, single oral 200 mg CK, HF, all subjects
[9] = male, human, plasma, po, 200 mg, single oral 200 mg CK, FO
[10] = male, human, plasma, po, 200 mg, single oral 200 mg CK, HF
[11] = plasma, single oral 200 mg CK, FO, female
[12] = plasma, single oral 200 mg CK, FO, male
[13] = plasma, single oral 200 mg CK, HF, male
[14] = single oral 200 mg CK, FO, all subjects
[15] = single oral 200 mg CK, FO, female
[16] = single oral 200 mg CK, FO, male
[17] = single oral 200 mg CK, HF, all subjects
[18] = single oral 200 mg CK, HF, female
[19] = single oral 200 mg CK, HF, male

Structure (SMILES): CC(C)=CCCC(C)(OC1OC(CO)C(O)C(O)C1O)C1CCC2(C)C1C(O)CC1C3(C)CCC(O)C(C)(C)C3CCC12C [CK, 20-O-beta-D-glucopyranosyl-20(S)-protopanaxadiol]
- Effects on vital signs, laboratory tests or 12-lead ECG ([1]; dose range 100–400 mg): no significant effects
- Dose range over which exposure increased linearly ([1]; previous clinical trial): 100 to 400 mg
- Mean plasma concentration at 96 h as fraction of Cmax ([1]; single oral dose at 800 mg): < 1/20
- Increase of Cmax, AUClast and AUCinf after HF meal compared to the FO condition ([2]; 24 subjects): about 2 fold
- lgAUClast GMR (90%CI) ([2]; FO vs. HF (Female), n = 12): 0.38 (0.28–0.53)
- lgCmax GMR (90%CI) ([2]; FO vs. HF (Female), n = 12): 0.45 (0.33–0.62)
- lgAUClast GMR (90%CI) ([2]; FO vs. HF (Male), n = 12): 0.49 (0.42–0.57)
- lgCmax GMR (90%CI) ([2]; FO vs. HF (Male), n = 12): 0.55 (0.46–0.65)
- lgAUClast GMR (90%CI) ([2]; M vs. F (FO), n = 12): 0.74 (0.54–1.02)
- lgCmax GMR (90%CI) ([2]; M vs. F (FO), n = 12): 0.77 (0.57–1.04)
- lgAUClast GMR (90%CI) ([2]; M vs. F (HF), n = 12): 0.59 (0.46–0.75)
- lgCmax GMR (90%CI) ([2]; M vs. F (HF), n = 12): 0.64 (0.46–0.88)
- Subjects having measurable CK concentrations at 0.25 h after administration ([2]; after a meal, 20 of 24 subjects): 83%
- half-life ([2]; both sexes, human, plasma, oral, 200 mg, FO and HF, male and female groups, read-out: mean t1/2, range over all treatments): 1440 to 1700 min
- AUC(0-inf) [2, 3]: 5880 ng·h/mL
- AUC(0-t) [2, 3]: 5750 ng·h/mL
- AUC(0-t) ([2]; both sexes, human, plasma, po, 200 mg, single oral 200 mg CK, HF, all subjects): 12600 ng·h/mL
- Tmax [2, 4]: 3.8 h
- Cmax ([2]; female, human, plasma, po, 200 mg, plasma, single oral 200 mg CK, FO, female, read-out: Cmax): 921 ± 505 ng/mL
- half-life ([2]; female, human, plasma, po, 200 mg, plasma, single oral 200 mg CK, FO, female, read-out: t1/2 (converted)): 1610 ± 324 min
- Cmax ([2]; female, human, plasma, po, 200 mg, plasma, single oral 200 mg CK, HF, female, read-out: Cmax): 1840 ng/mL
- half-life ([2]; female, human, plasma, po, 200 mg, plasma, single oral 200 mg CK, HF, female, read-out: t1/2 (converted)): 1540 ± 210 min
- MRT inf [2, 4]: 14.5 ± 2.1 h
- MRT last [2, 4]: 11.6 ± 1 h
- MRT inf [2, 5]: 14.6 ± 1.5 h
- MRT last [2, 5]: 12.2 ± 1 h
- AUC(0-inf) [2, 4]: 6900 ng·h/mL
- AUC(0-t) [2, 4]: 6750 ng·h/mL
- AUC(0-inf) [2, 5]: 15900 ng·h/mL
- AUC(0-t) [2, 5]: 15600 ng·h/mL
- lgAUClast GMR (90%CI) [2, 6]: 0.43 (0.36–0.51)
- lgCmax GMR (90%CI) [2, 6]: 0.50 (0.42–0.59)
- Tmax [2, 7]: 3.6 h
- half-life ([2]; human, plasma, po, 200 mg, plasma, single oral 200 mg CK, FO (fasting overnight), all subjects, read-out: t1/2 (converted)): 1660 ± 474 min
- Cmax ([2]; human, plasma, po, 200 mg, plasma, single oral 200 mg CK, FO, all subjects, read-out: Cmax): 797 ± 406 ng/mL
- half-life ([2]; human, plasma, po, 200 mg, plasma, single oral 200 mg CK, HF (high-fat meal), all subjects, read-out: t1/2 (converted)): 1490 ± 180 min
- Cmax ([2]; human, plasma, po, 200 mg, plasma, single oral 200 mg CK, HF, all subjects, read-out: Cmax): 1570 ng/mL
- MRT inf [2, 7]: 15.1 ± 4.3 h
- MRT last [2, 7]: 11.7 ± 1.2 h
- MRT inf [2, 8]: 14.6 ± 1.7 h
- MRT last [2, 8]: 12.3 ± 1.2 h
- Tmax [2, 9]: 3.4 h
- Cmax ([2]; male, human, plasma, po, 200 mg, plasma, single oral 200 mg CK, FO, male, read-out: Cmax): 672 ± 236 ng/mL
- half-life ([2]; male, human, plasma, po, 200 mg, plasma, single oral 200 mg CK, FO, male, read-out: t1/2 (converted)): 1700 ± 600 min
- Cmax ([2]; male, human, plasma, po, 200 mg, plasma, single oral 200 mg CK, HF, male, read-out: Cmax): 1300 ng/mL
- half-life ([2]; male, human, plasma, po, 200 mg, plasma, single oral 200 mg CK, HF, male, read-out: t1/2 (converted)): 1440 ± 144 min
- MRT inf [2, 9]: 15.7 ± 5.7 h
- MRT last [2, 9]: 11.9 ± 1.3 h
- MRT inf [2, 10]: 14.5 ± 1.9 h
- MRT last [2, 10]: 12.4 ± 1.4 h
- AUC(0-inf) [2, 9]: 4860 ng·h/mL
- AUC(0-t) [2, 9]: 4750 ng·h/mL
- AUC(0-inf) [2, 10]: 9810 ng·h/mL
- AUC(0-t) [2, 10]: 9630 ng·h/mL
- AUClast [2, 11]: 6,747.5 ± 3,408.7 h·ng·ml^−1
- Cmax [2, 11]: 921.4 ± 505.1 ng/mL
- AUCinf [2, 12]: 4,857.1 ± 1,723.2 h·ng·ml^−1
- AUClast [2, 12]: 4,749.9 ± 1,718.1 h·ng·ml^−1
- Cmax [2, 12]: 672.2 ± 235.8 ng/mL
- Cmax ([2]; plasma, single oral 200 mg CK, HF, female): 1,838.6 ± 404.4 ng·ml^−1
- AUClast [2, 13]: 9,633.1 ± 3,313.5 h·ng·ml^−1
- Cmax [2, 13]: 1,302.0 ± 632.9 ng·ml^−1
- CL/F [2, 14]: 43.4 ± 24.2 L/h
- V/F [2, 14]: 1,875 ± 1,899 L
- CL/F [2, 15]: 38.0 ± 21.8 L/h
- V/F [2, 15]: 1,427 ± 699 L
- CL/F [2, 16]: 48.8 ± 26.3 L/h
- V/F [2, 16]: 2,323 ± 2,572 L
- CL/F [2, 17]: 18.2 ± 9.8 L/h
- V/F [2, 17]: 652 ± 381 L
- CL/F [2, 18]: 12.8 ± 1.8 L/h
- V/F [2, 18]: 477 ± 109 L
- CL/F [2, 19]: 23.6 ± 11.6 L/h
- V/F [2, 19]: 828 ± 475 L

— article PMC5602130, “Food and Sex-Related Impacts on the Pharmacokinetics of a Single-Dose of Ginsenoside Compound K in Healthy Subjects” (Frontiers in Pharmacology, 2017)
